Compound: CC(=O)Oc1ccc(C(c2ccc(OC(C)=O)cc2)c2ccccn2)cc1
- solubility (mole fraction) (in ethanol, 278.15 K): 0.000239
- solubility (mole fraction) (in ethanol, 283.15 K): 0.000333
- solubility (mole fraction) (in ethanol, 288.15 K): 0.000452
- solubility (mole fraction) (in ethanol, 293.15 K): 0.000618
- solubility (mole fraction) (in ethanol, 298.15 K): 0.000835
- solubility (mole fraction) (in ethanol, 303.15 K): 0.0011
- solubility (mole fraction) (in ethanol, 308.15 K): 0.00145
- solubility (mole fraction) (in ethanol, 313.15 K): 0.00192
- solubility (mole fraction) (in ethanol, 318.15 K): 0.0025
- solubility (mole fraction) (in ethanol, 323.15 K): 0.00322
- solubility (mole fraction) (in isopropanol, 278.15 K): 0.000113
- solubility (mole fraction) (in isopropanol, 283.15 K): 0.000162
- solubility (mole fraction) (in isopropanol, 288.15 K): 0.000225
- solubility (mole fraction) (in isopropanol, 293.15 K): 0.000311
- solubility (mole fraction) (in isopropanol, 298.15 K): 0.000425
- solubility (mole fraction) (in isopropanol, 303.15 K): 0.000579
- solubility (mole fraction) (in isopropanol, 308.15 K): 0.000777
- solubility (mole fraction) (in isopropanol, 313.15 K): 0.00104
- solubility (mole fraction) (in isopropanol, 318.15 K): 0.00139
- solubility (mole fraction) (in isopropanol, 323.15 K): 0.00179
- solubility (mole fraction) (in methanol, 278.15 K): 0.000551
- solubility (mole fraction) (in methanol, 283.15 K): 0.000716
- solubility (mole fraction) (in methanol, 288.15 K): 0.000931
- solubility (mole fraction) (in methanol, 293.15 K): 0.00119
- solubility (mole fraction) (in methanol, 298.15 K): 0.0015
- solubility (mole fraction) (in methanol, 303.15 K): 0.0019
- solubility (mole fraction) (in methanol, 308.15 K): 0.00239
- solubility (mole fraction) (in methanol, 313.15 K): 0.00292
- solubility (mole fraction) (in methanol, 318.15 K): 0.00364
- solubility (mole fraction) (in methanol, 323.15 K): 0.00449
- solubility (mole fraction) (in water, 278.15 K): 9.39e-08
- solubility (mole fraction) (in water, 283.15 K): 1.13e-07
- solubility (mole fraction) (in water, 288.15 K): 1.35e-07
- solubility (mole fraction) (in water, 293.15 K): 1.62e-07
- solubility (mole fraction) (in water, 298.15 K): 1.91e-07
- solubility (mole fraction) (in water, 303.15 K): 2.25e-07
- solubility (mole fraction) (in water, 308.15 K): 2.64e-07
- solubility (mole fraction) (in water, 313.15 K): 3.08e-07
- solubility (mole fraction) (in water, 318.15 K): 3.57e-07
- solubility (mole fraction) (in water, 323.15 K): 4.13e-07
